Test results reported in US6482438B1, “Apparatus and process for preparing crystalline particles” (SmithKline Beecham Corporation, priority 1998, dated 2002).
Each block holds one molecule with its values, some of them ahead of it.

How the values were obtained:
[1] = Malvern laser diffraction particle sizing (Mastersizer X) of crystalline fluticasone propionate particles; assay type: physicochemical
Experimental: A continuous flow reaction cell with 2 diametrically opposite inlets at the bottom and a run-out ca. half way up the side of the vessel is used in the experiment. The drug substance (fluticasone propionate, FP) is dissolved in acetone (15 vol, 0.133 M) at elevated temperature (50-56° C.) and then allowed to cool to ambient temperature (20° C.). A solution of FP is then pumped using a peristaltic pump into one of the bottom inlets of the reaction cell. Water was similarly pumped via the other inlet from a water reservoir using a second pump.
Re-crystallisations are carried out from various mixtures of acetone and water (by altering the flow rates of each) as dictated by the parameters set out in the experimental design. Efficient mixing of the two streams is ensured with the aid of a non-grinding magnetic stirrer bar.
(§1) Before carrying out any particular crystallisation, the cell is pre-charged with a mixture of acetone/water (the ratio of each being the same as the relative pumping rates from the two reservoirs). By doing this, the relative concentrations of the water to acetone remains constant throughout the crystallisation. The tip of the sono-probe is arranged so that it is just above the inlet for the FP solution. When the magnetic stirrer, sono-probe and pumps are turned on, rapid onset of crystallisation takes place. A suspension of the crystallisation mixture exits via the overflow directly on to a filter funnel thus minimising the opportunity for further crystal growth.
(§2) Using the above set-up, the experiments set out in the experimental design shown below were carried out and the samples of damp solid harvested and dried in vacuo at ambient temperature. All the samples were sized using the Malvern laser diffraction particle sizer and the results analysed using multi-dimensional model fitting software (such as Design Expert 5).
Ultrasound Power is given as a percentage of maximum (50 W). Ultrasound frequency was 22 kHz.
(§3) Samples were analysed using Malvern laser diffraction particle sizing.
Instrument: Malvern Mastersizer X
Lens: 45 mm Reverse Fourier
Analysis: 0607 presentation code
(§4) Dispersant: Iso Octane / Lecithin 0.05% w/w
Pre dispersion: Sonicate for 10 seconds
(§5) One analysis per sample was carried out. The median particle size (D50), particle size at 90% undersize (D90) and particle size at 10% undersize (D10) were used as responses to characterise the medium, course, and fine particles. In addition a fourth response, uniformity index (Ul) was calculated as a measure of the breadth of the distribution.
Uniformity Index (Ul) is calculated as 100×D10/D90.

[2] = Malvern laser diffraction particle sizing (Mastersizer S) of crystalline salmeterol xinafoate particles; assay type: physicochemical; settings: methanol solution 7 ml/min
Experimental: A continuous flow reaction cell with 2 diametrically opposite inlets at the bottom and a run-out ca. half way up the side of the vessel is used in the experiment. […] The drug substance (salmeterol xinafoate) is dissolved in methanol (6 vol) at elevated temperature
(65° C.). A solution of salmeterol xinafoate (0.276 M) is then pumped (a fixed rate of 7 ml/min) using a peristaltic pump into one of the bottom inlets of the reaction cell. Cold water was similarly pumped via the other inlet from a water reservoir using a second pump at rates as dictated by the experimental design.
Re-crystallisations are carried out from various mixtures of methanol and water as dictated by the parameters set out in the experimental design. Efficient mixing of the two streams is ensured with the aid of a non-grinding magnetic stirrer bar. The stirrer speed is maintained constant at all times. The stir speed is set at such a rate so as to induce a minimum amount of vortex.
as §1, with “methanol/water” for “acetone/water”, “methanol” for “acetone”, “salmeterol” for “FP”
as §2
Ultrasound Power is given as a percentage of maximum (600 W). Ultrasound frequency was 22 kHz.
as §3
Instrument: Malvern Mastersizer S
Lens: 300 mm Reverse Fourier
Analysis: presentation code 30 GE
as §4
Pre dispersion: Sonicate for 1 Minute
as §5, with “10 %” for “10%”
Uniformity Index (Ul) is calculated as 100×D 10/D90.

[3] = Run 1: water 24 ml/min, acetone solution 3.50 ml/min, stirring 40.00 %, ultrasound 0.00 % of 50 W
[4] = Run 2: water 18 ml/min, acetone solution 5.25 ml/min, stirring 20.00 %, ultrasound 20.00 % of 50 W
[5] = Run 3: water 24 ml/min, acetone solution 3.50 ml/min, stirring 0.00 %, ultrasound 40.00 % of 50 W
[6] = Run 4: water 12 ml/min, acetone solution 7.00 ml/min, stirring 0.00 %, ultrasound 40.00 % of 50 W
[7] = Run 5: water 24 ml/min, acetone solution 7.00 ml/min, stirring 40.00 %, ultrasound 40.00 % of 50 W
[8] = Run 6: water 18 ml/min, acetone solution 5.25 ml/min, stirring 20.00 %, ultrasound 20.00 % of 50 W
[9] = Run 7: water 12 ml/min, acetone solution 3.50 ml/min, stirring 0.00 %, ultrasound 0.00 % of 50 W
[10] = Run 8: water 12 ml/min, acetone solution 7.00 ml/min, stirring 40.00 %, ultrasound 0.00 % of 50 W
[11] = Run 9: water 12 ml/min, acetone solution 3.50 ml/min, stirring 40.00 %, ultrasound 40.00 % of 50 W
[12] = Run 10: water 24 ml/min, acetone solution 7.00 ml/min, stirring 0.00 %, ultrasound 0.00 % of 50 W
[13] = Run 1: water 14 ml/min, ultrasound 10.00 % of 600 W
[14] = Run 2: water 56 ml/min, ultrasound 10.00 % of 600 W
[15] = Run 3: water 56 ml/min, ultrasound 90.00 % of 600 W
[16] = Run 4: water 56 ml/min, ultrasound 90.00 % of 600 W
[17] = Run 5: water 56 ml/min, ultrasound 10.00 % of 600 W
[18] = Run 6: water 14 ml/min, ultrasound 10.00 % of 600 W
[19] = Run 7: water 35 ml/min, ultrasound 50.00 % of 600 W
[20] = Run 8: water 14 ml/min, ultrasound 90.00 % of 600 W
[21] = Run 9: water 35 ml/min, ultrasound 50.00 % of 600 W
[22] = Run 10: water 14 ml/min, ultrasound 90.00 % of 600 W

D10 particle size at 10% undersize [1, 3]: 1.07 μm | D50 median particle size [1, 3]: 4.95 μm | D90 particle size at 90% undersize [1, 3]: 18.91 μm | UI uniformity index (100×D10/D90) [1, 3]: 5.7% | D10 particle size at 10% undersize [1, 4]: 1.02 μm | D50 median particle size [1, 4]: 4.56 μm | D90 particle size at 90% undersize [1, 4]: 14.29 μm | UI uniformity index (100×D10/D90) [1, 4]: 7.1% | D10 particle size at 10% undersize [1, 5]: 1 μm | D50 median particle size [1, 5]: 4.2 μm | D90 particle size at 90% undersize [1, 5]: 18.3 μm | UI uniformity index (100×D10/D90) [1, 5]: 5.3% | D10 particle size at 10% undersize [1, 6]: 2.62 μm | D50 median particle size [1, 6]: 7.52 μm | D90 particle size at 90% undersize [1, 6]: 20.83 μm | UI uniformity index (100×D10/D90) [1, 6]: 12.6% | D10 particle size at 10% undersize [1, 7]: 1.05 μm | D50 median particle size [1, 7]: 4.3 μm | D90 particle size at 90% undersize [1, 7]: 14.66 μm | UI uniformity index (100×D10/D90) [1, 7]: 7.2% | D10 particle size at 10% undersize [1, 8]: 0.89 μm | D50 median particle size [1, 8]: 5.28 μm | D90 particle size at 90% undersize [1, 8]: 17.16 μm | UI uniformity index (100×D10/D90) [1, 8]: 5.1% | D10 particle size at 10% undersize [1, 9]: 2.32 μm | D50 median particle size [1, 9]: 9.34 μm | D90 particle size at 90% undersize [1, 9]: 28.97 μm | UI uniformity index (100×D10/D90) [1, 9]: 8% | D10 particle size at 10% undersize [1, 10]: 1.06 μm | D50 median particle size [1, 10]: 3.46 μm | D90 particle size at 90% undersize [1, 10]: 9.33 μm | UI uniformity index (100×D10/D90) [1, 10]: 11.4% | D10 particle size at 10% undersize [1, 11]: 0.97 μm | D50 median particle size [1, 11]: 3.67 μm | D90 particle size at 90% undersize [1, 11]: 11.47 μm | UI uniformity index (100×D10/D90) [1, 11]: 8.5% | D10 particle size at 10% undersize [1, 12]: 1.48 μm | D50 median particle size [1, 12]: 9.79 μm | D90 particle size at 90% undersize [1, 12]: 37.62 μm | UI uniformity index (100×D10/D90) [1, 12]: 3.9%
SMILES: CCC(=O)O[C@]1(C(=O)SCF)[C@H](C)C[C@H]2[C@@H]3C[C@H](F)C4=CC(=O)C=C[C@]4(C)[C@@]3(F)[C@@H](O)C[C@@]21C [fluticasone propionate]

D10 particle size at 10% undersize [2, 13]: 1.6 μm | D50 median particle size [2, 13]: 10.1 μm | D90 particle size at 90% undersize [2, 13]: 24.78 μm | UI uniformity index (100×D10/D90) [2, 13]: 6.46% | D10 particle size at 10% undersize [2, 14]: 0.48 μm | D50 median particle size [2, 14]: 3.9 μm | D90 particle size at 90% undersize [2, 14]: 10.21 μm | UI uniformity index (100×D10/D90) [2, 14]: 4.70% | D10 particle size at 10% undersize [2, 15]: 0.64 μm | D50 median particle size [2, 15]: 4.24 μm | D90 particle size at 90% undersize [2, 15]: 14.45 μm | UI uniformity index (100×D10/D90) [2, 15]: 4.42% | D10 particle size at 10% undersize [2, 16]: 0.53 μm | D50 median particle size [2, 16]: 4.29 μm | D90 particle size at 90% undersize [2, 16]: 17.62 μm | UI uniformity index (100×D10/D90) [2, 16]: 3.01% | D10 particle size at 10% undersize [2, 17]: 0.39 μm | D50 median particle size [2, 17]: 4.74 μm | D90 particle size at 90% undersize [2, 17]: 16.8 μm | UI uniformity index (100×D10/D90) [2, 17]: 2.32% | D10 particle size at 10% undersize [2, 18]: 2.17 μm | D50 median particle size [2, 18]: 11.09 μm | D90 particle size at 90% undersize [2, 18]: 23.37 μm | UI uniformity index (100×D10/D90) [2, 18]: 9.28% | D10 particle size at 10% undersize [2, 19]: 1.08 μm | D50 median particle size [2, 19]: 4.75 μm | D90 particle size at 90% undersize [2, 19]: 13.45 μm | UI uniformity index (100×D10/D90) [2, 19]: 8.03% | D10 particle size at 10% undersize [2, 20]: 1.63 μm | D50 median particle size [2, 20]: 6.37 μm | D90 particle size at 90% undersize [2, 20]: 20.37 μm | UI uniformity index (100×D10/D90) [2, 20]: 8.00% | D10 particle size at 10% undersize [2, 21]: 1.88 μm | D50 median particle size [2, 21]: 4.99 μm | D90 particle size at 90% undersize [2, 21]: 11.76 μm | UI uniformity index (100×D10/D90) [2, 21]: 15.99% | D10 particle size at 10% undersize [2, 22]: 1.77 μm | D50 median particle size [2, 22]: 7.86 μm | D90 particle size at 90% undersize [2, 22]: 24.96 μm | UI uniformity index (100×D10/D90) [2, 22]: 7.09%
SMILES: OCc1cc(C(O)CNCCCCCCOCCCCc2ccccc2)ccc1O (centres unmarked) [salmeterol xinafoate]
